# Reference: publication PMC8617627, “Novel DYRK1A Inhibitor Rescues Learning and Memory Deficits in a Mouse Model of Down Syndrome” (Pharmaceuticals, 2021)
# Where two headings read alike, the source gives them in different places.
# Key:
# Test in all cases: Kinase profile (33P ATP filter binding)
# Assay type in all cases: biochemical
# [1] = biological target: Aurora B (Homo sapiens, UniProt Q96GD4); conditions: read-out: Remaining protein kinase activity
# [2] = biological target: CDK9-Cyclin T1 (Homo sapiens, UniProt P50750); conditions: read-out: Remaining protein kinase activity
# [3] = biological target: T1, CHK1 (Homo sapiens, UniProt O14757)
# T1 sequence (O14757 1-476): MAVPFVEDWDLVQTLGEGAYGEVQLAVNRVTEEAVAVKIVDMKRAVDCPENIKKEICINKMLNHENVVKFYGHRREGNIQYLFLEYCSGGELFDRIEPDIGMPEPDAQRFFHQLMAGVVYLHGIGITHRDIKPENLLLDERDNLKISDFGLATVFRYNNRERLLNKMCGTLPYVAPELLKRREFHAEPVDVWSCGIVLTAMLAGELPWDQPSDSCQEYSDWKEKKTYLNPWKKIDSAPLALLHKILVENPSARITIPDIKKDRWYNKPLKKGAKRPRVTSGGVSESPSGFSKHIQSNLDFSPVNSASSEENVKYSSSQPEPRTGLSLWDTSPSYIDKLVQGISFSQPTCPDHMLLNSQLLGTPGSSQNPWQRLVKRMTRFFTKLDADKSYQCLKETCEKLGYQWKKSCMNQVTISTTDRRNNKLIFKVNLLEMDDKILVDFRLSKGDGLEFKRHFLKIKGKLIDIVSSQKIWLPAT
# [4] = biological target: T2, ERK8 (Homo sapiens, UniProt Q8TD08); conditions: read-out: Remaining protein kinase activity
# T2 sequence (Q8TD08 1-544): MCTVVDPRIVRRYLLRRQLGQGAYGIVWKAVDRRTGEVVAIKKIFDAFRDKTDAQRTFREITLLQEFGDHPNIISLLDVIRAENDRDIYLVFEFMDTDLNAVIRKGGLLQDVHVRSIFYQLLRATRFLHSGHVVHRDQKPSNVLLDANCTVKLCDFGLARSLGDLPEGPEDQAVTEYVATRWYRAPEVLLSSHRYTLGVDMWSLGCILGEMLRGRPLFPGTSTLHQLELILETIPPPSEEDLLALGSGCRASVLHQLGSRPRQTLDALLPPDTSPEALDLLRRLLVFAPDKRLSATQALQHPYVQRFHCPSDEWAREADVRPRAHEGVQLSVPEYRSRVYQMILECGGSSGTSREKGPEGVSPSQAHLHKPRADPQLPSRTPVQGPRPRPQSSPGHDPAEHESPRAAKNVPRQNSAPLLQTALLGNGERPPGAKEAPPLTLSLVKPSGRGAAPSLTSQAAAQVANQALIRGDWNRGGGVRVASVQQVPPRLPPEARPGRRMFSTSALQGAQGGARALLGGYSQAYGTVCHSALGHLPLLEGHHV
# [5] = biological target: IGF-1R (Homo sapiens, UniProt P08069); conditions: read-out: Remaining protein kinase activity
# [6] = biological target: JAK2 (Homo sapiens, UniProt O60674)
# [7] = biological target: JNK1 (Homo sapiens, UniProt P45983)
# [8] = biological target: MSK1 (Homo sapiens, UniProt O75582); conditions: read-out: Remaining protein kinase activity
# [9] = biological target: T3, NUAK1 (Homo sapiens, UniProt O60285)
# T3 sequence (O60285 1-661): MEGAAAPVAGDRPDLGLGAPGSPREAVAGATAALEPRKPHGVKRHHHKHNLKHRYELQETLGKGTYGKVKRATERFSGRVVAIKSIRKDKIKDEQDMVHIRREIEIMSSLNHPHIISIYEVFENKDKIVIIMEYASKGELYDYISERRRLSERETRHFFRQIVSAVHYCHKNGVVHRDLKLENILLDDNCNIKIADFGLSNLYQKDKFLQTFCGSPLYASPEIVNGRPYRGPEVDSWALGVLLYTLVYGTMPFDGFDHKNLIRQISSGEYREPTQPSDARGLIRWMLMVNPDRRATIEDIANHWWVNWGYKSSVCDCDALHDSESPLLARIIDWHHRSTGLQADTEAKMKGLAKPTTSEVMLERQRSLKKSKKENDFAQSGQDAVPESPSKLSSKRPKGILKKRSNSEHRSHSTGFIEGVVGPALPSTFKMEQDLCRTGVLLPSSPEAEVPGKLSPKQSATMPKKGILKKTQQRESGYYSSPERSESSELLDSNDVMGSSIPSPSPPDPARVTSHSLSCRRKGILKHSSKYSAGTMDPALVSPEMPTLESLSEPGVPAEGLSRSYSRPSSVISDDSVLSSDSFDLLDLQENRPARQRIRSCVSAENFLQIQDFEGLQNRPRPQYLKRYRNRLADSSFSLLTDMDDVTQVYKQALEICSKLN
# [10] = biological target: PIM3 (Homo sapiens, UniProt Q86V86); conditions: read-out: Remaining protein kinase activity
# [11] = biological target: TESK1 (Homo sapiens, UniProt Q15569); conditions: read-out: Remaining protein kinase activity
# [12] = biological target: TIE2 (Homo sapiens, UniProt Q02763); conditions: read-out: Remaining protein kinase activity
# Chain of IGF-1R (P08069 31-1367): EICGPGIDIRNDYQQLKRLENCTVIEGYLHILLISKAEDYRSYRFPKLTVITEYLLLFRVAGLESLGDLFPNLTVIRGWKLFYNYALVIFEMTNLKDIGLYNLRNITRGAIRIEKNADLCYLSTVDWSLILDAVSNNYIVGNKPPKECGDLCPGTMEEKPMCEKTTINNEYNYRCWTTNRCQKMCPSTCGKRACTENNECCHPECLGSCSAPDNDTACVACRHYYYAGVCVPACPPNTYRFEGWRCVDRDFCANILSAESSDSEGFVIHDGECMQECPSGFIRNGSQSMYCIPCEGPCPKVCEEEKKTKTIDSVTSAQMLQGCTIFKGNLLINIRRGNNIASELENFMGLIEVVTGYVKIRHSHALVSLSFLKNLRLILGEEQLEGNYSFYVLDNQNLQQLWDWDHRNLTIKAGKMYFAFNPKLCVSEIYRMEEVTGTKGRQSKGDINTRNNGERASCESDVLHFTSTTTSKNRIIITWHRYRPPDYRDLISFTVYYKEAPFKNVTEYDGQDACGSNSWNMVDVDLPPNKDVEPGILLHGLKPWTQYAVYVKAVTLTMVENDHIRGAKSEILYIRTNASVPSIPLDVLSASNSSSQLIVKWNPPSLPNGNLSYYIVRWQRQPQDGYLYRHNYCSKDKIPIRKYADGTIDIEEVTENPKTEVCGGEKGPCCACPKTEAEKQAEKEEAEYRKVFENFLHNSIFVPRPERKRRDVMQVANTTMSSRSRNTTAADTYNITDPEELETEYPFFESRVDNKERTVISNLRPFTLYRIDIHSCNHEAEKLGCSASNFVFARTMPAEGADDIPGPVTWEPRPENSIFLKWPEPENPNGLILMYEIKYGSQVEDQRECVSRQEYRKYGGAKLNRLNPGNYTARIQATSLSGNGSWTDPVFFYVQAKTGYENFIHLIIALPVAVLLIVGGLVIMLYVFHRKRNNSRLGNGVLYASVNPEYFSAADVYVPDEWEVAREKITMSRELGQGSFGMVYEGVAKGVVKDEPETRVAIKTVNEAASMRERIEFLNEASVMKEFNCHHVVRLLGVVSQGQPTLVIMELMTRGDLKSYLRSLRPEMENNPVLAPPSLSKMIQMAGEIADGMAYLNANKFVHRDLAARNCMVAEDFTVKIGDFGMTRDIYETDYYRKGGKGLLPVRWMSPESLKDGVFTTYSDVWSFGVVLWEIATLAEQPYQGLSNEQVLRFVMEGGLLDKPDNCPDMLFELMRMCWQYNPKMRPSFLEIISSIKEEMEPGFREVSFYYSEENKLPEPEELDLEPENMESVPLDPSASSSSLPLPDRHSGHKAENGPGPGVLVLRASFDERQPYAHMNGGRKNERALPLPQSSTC
# Chain of MSK1 (O75582 whole entry): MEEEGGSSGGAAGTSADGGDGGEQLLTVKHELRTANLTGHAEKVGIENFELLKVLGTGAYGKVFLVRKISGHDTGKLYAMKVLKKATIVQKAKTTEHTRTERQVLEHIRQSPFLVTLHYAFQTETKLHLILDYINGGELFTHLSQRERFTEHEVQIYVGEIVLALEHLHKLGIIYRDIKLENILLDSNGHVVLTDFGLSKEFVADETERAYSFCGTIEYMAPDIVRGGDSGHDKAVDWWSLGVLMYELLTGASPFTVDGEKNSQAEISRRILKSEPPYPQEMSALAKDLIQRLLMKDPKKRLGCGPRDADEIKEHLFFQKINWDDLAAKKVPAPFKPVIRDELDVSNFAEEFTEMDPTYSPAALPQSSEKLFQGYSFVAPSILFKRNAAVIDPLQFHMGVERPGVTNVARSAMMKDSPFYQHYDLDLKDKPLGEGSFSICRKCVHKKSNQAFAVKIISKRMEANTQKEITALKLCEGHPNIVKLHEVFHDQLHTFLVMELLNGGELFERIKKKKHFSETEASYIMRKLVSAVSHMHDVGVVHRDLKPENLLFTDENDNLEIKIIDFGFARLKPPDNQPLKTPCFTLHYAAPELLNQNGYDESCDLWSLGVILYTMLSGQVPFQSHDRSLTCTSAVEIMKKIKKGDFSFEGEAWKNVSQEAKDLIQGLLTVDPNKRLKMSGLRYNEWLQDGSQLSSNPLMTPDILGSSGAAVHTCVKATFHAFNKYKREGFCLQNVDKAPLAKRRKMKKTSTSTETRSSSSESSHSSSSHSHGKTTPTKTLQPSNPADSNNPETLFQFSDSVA
# Chain of CDK9-Cyclin T1 (P50750 whole entry): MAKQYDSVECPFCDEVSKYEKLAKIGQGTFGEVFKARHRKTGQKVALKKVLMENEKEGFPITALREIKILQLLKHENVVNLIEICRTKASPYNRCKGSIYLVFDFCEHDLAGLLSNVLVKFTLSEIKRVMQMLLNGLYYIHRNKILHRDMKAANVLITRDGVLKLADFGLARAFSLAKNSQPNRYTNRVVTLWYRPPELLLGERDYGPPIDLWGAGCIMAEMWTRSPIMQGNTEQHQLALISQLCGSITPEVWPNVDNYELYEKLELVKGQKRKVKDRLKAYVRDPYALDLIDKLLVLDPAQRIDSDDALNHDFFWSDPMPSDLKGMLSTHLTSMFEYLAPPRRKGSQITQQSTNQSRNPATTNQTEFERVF
# Chain of CDK9-Cyclin T1 (O60563 whole entry partner): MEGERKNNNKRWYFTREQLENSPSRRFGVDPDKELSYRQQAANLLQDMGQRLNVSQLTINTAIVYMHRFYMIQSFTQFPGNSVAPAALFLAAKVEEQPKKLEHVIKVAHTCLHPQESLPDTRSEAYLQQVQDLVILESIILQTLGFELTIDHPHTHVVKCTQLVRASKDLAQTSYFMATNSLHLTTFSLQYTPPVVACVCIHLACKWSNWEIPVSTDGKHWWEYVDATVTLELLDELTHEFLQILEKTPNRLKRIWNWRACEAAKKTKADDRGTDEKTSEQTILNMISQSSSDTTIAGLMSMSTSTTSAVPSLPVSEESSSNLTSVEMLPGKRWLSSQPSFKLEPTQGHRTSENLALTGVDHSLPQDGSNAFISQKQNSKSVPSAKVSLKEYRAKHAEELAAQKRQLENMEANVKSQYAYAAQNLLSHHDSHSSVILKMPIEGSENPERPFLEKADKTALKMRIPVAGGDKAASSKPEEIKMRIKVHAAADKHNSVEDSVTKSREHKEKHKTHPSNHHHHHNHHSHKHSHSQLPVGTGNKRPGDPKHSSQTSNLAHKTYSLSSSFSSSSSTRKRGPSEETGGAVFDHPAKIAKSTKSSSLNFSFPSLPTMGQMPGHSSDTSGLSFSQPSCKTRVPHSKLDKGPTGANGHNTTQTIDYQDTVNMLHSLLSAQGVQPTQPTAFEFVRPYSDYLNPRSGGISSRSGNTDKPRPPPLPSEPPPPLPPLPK
# Chain of JNK1 (P45983 whole entry, species assumed): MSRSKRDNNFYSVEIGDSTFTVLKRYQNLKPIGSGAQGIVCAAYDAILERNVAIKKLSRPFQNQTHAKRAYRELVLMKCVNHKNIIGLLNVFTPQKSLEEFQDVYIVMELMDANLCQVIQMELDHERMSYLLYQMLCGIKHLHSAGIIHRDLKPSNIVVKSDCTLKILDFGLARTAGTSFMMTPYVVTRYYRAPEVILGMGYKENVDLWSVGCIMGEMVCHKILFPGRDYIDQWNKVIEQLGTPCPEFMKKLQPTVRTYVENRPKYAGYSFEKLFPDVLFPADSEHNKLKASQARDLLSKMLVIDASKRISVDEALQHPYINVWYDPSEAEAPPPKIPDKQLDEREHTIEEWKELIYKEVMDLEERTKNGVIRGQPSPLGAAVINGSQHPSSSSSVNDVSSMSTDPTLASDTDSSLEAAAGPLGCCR
# Chain of TESK1 (Q15569 whole entry): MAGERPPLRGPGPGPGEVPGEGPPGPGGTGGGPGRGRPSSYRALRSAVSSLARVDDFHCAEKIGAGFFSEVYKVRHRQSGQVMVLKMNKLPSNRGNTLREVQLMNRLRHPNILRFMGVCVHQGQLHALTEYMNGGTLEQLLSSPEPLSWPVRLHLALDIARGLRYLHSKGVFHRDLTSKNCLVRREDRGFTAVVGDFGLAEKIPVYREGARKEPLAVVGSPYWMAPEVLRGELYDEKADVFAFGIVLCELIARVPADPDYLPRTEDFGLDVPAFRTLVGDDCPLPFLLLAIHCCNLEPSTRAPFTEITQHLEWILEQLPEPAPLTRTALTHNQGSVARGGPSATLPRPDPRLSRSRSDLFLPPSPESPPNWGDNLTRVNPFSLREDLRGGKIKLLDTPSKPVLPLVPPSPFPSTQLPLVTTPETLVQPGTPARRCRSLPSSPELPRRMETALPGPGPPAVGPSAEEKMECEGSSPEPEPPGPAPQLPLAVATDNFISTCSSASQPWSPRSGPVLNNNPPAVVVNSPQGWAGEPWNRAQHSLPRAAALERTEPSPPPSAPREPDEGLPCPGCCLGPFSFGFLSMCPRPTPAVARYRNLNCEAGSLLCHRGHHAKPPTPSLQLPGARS
# Chain of Aurora B (Q96GD4 whole entry): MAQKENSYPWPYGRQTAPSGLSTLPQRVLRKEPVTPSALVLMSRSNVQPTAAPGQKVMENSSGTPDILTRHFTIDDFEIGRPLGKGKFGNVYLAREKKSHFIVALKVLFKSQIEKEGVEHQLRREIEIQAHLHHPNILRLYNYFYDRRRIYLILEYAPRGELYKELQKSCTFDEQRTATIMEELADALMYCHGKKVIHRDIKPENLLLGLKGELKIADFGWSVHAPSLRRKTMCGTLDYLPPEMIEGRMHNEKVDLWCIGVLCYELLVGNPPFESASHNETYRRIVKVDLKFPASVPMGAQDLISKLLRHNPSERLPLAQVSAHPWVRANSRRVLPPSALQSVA
smiles,measurement,setting,value
"COc1ccc2sc(-c3cncc(NC(C)=O)c3)nc2c1 [PST-001, N-(5-(5-Methoxybenzo[d]thiazol-2-yl)pyridin-3-yl)acetamide]",remaining activity at 1 µM,[1],106%
same,remaining activity at 100 µM,[1],24%
same,remaining activity at 1 µM,[2],122%
same,remaining activity at 100 µM,[2],120%
same,Remaining protein kinase activity,[3]; 1 μM,104%
same,Remaining protein kinase activity,[3]; 100 μM,115%
same,remaining activity at 1 µM,[4],89%
same,remaining activity at 100 µM,[4],28%
same,remaining activity at 1 µM,[5],104%
same,remaining activity at 100 µM,[5],104%
same,Remaining protein kinase activity,[6]; 1 μM,123%
same,Remaining protein kinase activity,[6]; 100 μM,125%
same,Remaining protein kinase activity,[7]; 1 μM,113%
same,Remaining protein kinase activity,[7]; 100 μM,130%
same,remaining activity at 1 µM,[8],104%
same,remaining activity at 100 µM,[8],64%
same,Remaining protein kinase activity,[9]; 1 μM,130%
same,remaining activity at 1 µM,[10],93%
same,remaining activity at 100 µM,[10],76%
same,remaining activity at 1 µM,[11],105%
same,remaining activity at 100 µM,[11],85%
same,remaining activity at 1 µM,[12],129%
same,remaining activity at 100 µM,[12],133%
"COc1ccc2sc(-c3cncc(N)c3)nc2c1 [compound 1, 5-(5-Methoxybenzo[d]thiazol-2-yl)pyridin-3-amine]",remaining activity at 1 µM,"[1]; Aurora B, 1 μM",107%
same,remaining activity at 100 µM,"[1]; Aurora B, 100 μM",21%
same,remaining activity at 1 µM,"[2]; CDK9-Cyclin T1, 1 μM",113%
same,remaining activity at 100 µM,"[2]; CDK9-Cyclin T1, 100 μM",83%
same,Remaining protein kinase activity,[3]; 1 μM,101%
same,Remaining protein kinase activity,[3]; 100 μM,86%
same,remaining activity at 1 µM,"[4]; ERK8, 1 μM",86%
same,remaining activity at 100 µM,"[4]; ERK8, 100 μM",4%
same,remaining activity at 1 µM,"[5]; IGF-1R, 1 μM",96%
same,remaining activity at 100 µM,"[5]; IGF-1R, 100 μM",68%
same,Remaining protein kinase activity,[6]; 1 μM,117%
same,Remaining protein kinase activity,[6]; 100 μM,55%
same,Remaining protein kinase activity,[7]; 1 μM,112%
same,Remaining protein kinase activity,[7]; 100 μM,94%
same,remaining activity at 1 µM,"[8]; MSK1, 1 μM",109%
same,remaining activity at 100 µM,"[8]; MSK1, 100 μM",60%
same,Remaining protein kinase activity,[9]; 1 μM,112%
same,Remaining protein kinase activity,[9]; 100 μM,35%
same,remaining activity at 1 µM,"[10]; PIM3, 1 μM",90%
same,remaining activity at 100 µM,"[10]; PIM3, 100 μM",24%
same,remaining activity at 1 µM,"[11]; TESK1, 1 μM",110%
same,remaining activity at 100 µM,"[11]; TESK1, 100 μM",28%
same,remaining activity at 1 µM,"[12]; TIE2, 1 μM",135%
same,remaining activity at 100 µM,"[12]; TIE2, 100 μM",85%
